From ChEMBL document CHEMBL3991601, “The target landscape of clinical kinase drugs” (Science, 2017)
Activity calls are given as the source filed them.

Columns and labels:
[1] = molecular target: Atypical kinase COQ8A, mitochondrial (Homo sapiens, UniProt Q8NI60)
[2] = molecular target: T1, Cysteine--tRNA ligase, cytoplasmic (Homo sapiens, UniProt P49589)
T1 sequence (P49589 whole entry): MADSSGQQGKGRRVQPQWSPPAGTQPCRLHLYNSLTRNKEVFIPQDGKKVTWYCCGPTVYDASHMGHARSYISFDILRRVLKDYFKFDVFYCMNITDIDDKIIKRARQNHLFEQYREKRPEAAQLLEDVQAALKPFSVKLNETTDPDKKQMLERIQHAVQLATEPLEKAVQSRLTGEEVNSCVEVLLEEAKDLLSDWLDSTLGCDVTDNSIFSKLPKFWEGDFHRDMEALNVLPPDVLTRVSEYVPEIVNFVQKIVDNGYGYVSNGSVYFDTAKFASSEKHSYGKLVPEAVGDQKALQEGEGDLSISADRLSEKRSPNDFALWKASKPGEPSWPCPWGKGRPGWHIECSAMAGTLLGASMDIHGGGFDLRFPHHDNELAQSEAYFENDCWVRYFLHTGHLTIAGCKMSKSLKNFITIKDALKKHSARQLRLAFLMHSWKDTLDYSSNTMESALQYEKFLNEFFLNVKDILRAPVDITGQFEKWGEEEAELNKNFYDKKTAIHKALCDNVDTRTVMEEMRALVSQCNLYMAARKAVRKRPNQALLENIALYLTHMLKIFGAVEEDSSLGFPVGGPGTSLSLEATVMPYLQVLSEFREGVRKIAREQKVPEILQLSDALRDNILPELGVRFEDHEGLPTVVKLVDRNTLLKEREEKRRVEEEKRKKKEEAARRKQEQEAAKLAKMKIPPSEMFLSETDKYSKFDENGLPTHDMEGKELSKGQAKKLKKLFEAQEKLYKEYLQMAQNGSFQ

[3] = molecular target: Serine/threonine-protein kinase MRCK beta (Homo sapiens, UniProt Q9Y5S2)
[4] = molecular target: Casein kinase I isoform epsilon (Homo sapiens, UniProt P49674)
Casein kinase I isoform epsilon, sequence (P49674 whole entry, canonical isoform): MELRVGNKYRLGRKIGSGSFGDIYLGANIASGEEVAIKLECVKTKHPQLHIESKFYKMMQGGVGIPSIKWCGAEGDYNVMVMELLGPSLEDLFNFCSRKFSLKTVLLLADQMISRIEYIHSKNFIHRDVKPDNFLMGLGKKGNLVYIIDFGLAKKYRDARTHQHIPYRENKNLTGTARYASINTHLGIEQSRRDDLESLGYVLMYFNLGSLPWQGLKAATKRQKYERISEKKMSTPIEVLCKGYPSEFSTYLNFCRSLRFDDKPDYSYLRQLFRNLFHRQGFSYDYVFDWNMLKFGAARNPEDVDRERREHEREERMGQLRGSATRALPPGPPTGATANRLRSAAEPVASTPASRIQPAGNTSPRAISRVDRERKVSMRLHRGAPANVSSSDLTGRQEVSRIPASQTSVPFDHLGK

[5] = molecular target: Dual specificity tyrosine-phosphorylation-regulated kinase 1A (Homo sapiens, UniProt Q13627)
[6] = molecular target: T2, Glycine--tRNA ligase (Homo sapiens, UniProt P41250)
T2 sequence (P41250 whole entry): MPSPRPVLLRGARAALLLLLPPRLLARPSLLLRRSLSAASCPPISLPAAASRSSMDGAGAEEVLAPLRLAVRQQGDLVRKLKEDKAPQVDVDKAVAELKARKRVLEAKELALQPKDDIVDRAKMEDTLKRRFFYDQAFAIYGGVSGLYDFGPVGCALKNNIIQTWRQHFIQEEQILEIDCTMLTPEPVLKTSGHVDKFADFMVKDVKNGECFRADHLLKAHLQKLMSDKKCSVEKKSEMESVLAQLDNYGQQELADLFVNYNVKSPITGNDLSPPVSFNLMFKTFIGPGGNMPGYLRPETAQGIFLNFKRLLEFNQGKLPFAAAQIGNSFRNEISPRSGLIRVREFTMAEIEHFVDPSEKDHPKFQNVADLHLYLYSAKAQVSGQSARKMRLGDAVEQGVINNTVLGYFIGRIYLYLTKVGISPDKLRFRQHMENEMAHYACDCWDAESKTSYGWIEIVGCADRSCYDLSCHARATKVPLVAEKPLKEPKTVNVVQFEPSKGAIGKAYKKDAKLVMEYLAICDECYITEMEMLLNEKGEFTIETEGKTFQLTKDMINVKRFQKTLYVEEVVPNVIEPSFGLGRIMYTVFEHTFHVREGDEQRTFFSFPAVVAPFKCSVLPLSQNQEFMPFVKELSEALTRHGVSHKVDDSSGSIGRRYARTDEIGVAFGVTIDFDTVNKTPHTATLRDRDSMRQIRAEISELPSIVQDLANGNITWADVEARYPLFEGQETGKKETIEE

[7] = molecular target: Mitogen-activated protein kinase kinase kinase kinase 4 (Homo sapiens, UniProt O95819)
Mitogen-activated protein kinase kinase kinase kinase 4, sequence (O95819 whole entry): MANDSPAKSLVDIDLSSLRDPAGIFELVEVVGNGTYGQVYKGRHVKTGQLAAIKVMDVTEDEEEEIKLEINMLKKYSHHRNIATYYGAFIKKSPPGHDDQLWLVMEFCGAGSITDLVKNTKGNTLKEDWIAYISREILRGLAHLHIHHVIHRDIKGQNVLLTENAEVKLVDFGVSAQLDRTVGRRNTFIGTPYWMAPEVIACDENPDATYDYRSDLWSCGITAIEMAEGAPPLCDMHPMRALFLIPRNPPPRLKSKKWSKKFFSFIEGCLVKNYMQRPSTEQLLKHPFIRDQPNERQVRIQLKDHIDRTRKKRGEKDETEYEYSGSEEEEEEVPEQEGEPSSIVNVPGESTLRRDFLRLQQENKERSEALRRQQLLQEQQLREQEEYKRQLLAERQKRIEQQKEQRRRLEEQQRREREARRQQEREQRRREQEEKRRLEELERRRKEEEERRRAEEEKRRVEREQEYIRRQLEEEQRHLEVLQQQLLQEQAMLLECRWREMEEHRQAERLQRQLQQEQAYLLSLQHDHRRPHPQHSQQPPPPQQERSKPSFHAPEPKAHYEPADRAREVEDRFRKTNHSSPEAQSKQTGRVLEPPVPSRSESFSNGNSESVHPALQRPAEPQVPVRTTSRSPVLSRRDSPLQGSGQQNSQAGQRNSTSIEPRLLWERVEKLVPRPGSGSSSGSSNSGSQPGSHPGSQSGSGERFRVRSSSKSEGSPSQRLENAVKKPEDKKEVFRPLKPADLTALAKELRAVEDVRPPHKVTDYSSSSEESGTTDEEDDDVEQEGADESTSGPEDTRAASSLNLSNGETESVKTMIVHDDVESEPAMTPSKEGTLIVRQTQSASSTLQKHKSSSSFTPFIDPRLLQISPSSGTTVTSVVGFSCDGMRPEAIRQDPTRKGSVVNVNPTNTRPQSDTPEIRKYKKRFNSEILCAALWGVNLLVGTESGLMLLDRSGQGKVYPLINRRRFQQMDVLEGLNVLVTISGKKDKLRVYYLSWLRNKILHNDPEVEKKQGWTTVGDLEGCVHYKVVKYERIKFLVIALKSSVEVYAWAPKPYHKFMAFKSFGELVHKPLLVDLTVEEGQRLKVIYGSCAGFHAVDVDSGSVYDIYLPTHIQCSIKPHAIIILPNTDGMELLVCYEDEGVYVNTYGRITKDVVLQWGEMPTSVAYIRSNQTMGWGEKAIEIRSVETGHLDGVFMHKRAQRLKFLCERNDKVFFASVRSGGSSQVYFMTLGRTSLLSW

[8] = molecular target: T3, Mitogen-activated protein kinase 15 (Homo sapiens, UniProt Q8TD08)
T3 sequence (Q8TD08 whole entry): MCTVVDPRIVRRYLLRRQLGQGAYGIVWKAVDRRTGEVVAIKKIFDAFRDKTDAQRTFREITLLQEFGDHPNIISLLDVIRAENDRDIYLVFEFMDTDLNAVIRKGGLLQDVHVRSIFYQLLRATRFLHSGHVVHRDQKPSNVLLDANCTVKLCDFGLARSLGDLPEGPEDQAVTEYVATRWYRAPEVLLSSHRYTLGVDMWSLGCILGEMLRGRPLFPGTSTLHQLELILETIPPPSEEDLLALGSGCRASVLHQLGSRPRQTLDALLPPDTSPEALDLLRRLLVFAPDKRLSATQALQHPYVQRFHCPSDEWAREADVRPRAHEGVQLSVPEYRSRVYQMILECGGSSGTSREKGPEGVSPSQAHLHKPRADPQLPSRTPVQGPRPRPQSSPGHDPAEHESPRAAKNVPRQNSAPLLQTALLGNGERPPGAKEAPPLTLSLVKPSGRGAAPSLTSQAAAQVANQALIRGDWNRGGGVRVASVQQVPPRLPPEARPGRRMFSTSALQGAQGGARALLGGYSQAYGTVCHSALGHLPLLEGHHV

[9] = molecular target: Midasin (Homo sapiens, UniProt Q9NU22)
[10] = molecular target: GTP-binding nuclear protein Ran (Homo sapiens, UniProt P62826)
[11] = molecular target: Serine/threonine-protein kinase SIK2 (Homo sapiens, UniProt Q9H0K1)
Serine/threonine-protein kinase SIK2, sequence (Q9H0K1 whole entry): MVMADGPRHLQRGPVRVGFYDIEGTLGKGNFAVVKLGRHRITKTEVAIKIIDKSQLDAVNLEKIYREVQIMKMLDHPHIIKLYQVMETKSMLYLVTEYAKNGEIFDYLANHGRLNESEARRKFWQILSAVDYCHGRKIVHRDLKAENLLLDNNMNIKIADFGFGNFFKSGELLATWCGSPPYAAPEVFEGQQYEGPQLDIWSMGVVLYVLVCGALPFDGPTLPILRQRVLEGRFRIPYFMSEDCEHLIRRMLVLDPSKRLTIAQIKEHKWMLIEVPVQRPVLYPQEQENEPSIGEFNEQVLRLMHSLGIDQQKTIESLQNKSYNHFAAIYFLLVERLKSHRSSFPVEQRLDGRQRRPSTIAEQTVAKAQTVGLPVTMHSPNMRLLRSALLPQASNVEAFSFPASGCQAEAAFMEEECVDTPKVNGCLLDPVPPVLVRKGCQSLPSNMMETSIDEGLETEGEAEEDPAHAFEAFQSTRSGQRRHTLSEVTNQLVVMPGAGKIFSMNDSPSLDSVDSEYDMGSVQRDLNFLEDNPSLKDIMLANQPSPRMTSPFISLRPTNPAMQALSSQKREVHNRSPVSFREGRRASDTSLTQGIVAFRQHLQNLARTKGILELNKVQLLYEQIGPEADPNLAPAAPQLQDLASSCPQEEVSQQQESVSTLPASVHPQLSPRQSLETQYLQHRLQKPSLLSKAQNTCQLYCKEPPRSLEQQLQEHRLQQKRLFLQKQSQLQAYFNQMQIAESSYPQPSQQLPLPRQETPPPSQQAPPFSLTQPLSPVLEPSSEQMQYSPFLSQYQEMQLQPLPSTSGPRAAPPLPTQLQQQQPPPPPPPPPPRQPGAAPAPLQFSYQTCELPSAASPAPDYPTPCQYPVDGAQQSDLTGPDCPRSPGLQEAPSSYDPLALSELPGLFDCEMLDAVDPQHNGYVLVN

[12] = molecular target: STE20-like serine/threonine-protein kinase (Homo sapiens, UniProt Q9H2G2)
STE20-like serine/threonine-protein kinase, sequence (Q9H2G2 whole entry): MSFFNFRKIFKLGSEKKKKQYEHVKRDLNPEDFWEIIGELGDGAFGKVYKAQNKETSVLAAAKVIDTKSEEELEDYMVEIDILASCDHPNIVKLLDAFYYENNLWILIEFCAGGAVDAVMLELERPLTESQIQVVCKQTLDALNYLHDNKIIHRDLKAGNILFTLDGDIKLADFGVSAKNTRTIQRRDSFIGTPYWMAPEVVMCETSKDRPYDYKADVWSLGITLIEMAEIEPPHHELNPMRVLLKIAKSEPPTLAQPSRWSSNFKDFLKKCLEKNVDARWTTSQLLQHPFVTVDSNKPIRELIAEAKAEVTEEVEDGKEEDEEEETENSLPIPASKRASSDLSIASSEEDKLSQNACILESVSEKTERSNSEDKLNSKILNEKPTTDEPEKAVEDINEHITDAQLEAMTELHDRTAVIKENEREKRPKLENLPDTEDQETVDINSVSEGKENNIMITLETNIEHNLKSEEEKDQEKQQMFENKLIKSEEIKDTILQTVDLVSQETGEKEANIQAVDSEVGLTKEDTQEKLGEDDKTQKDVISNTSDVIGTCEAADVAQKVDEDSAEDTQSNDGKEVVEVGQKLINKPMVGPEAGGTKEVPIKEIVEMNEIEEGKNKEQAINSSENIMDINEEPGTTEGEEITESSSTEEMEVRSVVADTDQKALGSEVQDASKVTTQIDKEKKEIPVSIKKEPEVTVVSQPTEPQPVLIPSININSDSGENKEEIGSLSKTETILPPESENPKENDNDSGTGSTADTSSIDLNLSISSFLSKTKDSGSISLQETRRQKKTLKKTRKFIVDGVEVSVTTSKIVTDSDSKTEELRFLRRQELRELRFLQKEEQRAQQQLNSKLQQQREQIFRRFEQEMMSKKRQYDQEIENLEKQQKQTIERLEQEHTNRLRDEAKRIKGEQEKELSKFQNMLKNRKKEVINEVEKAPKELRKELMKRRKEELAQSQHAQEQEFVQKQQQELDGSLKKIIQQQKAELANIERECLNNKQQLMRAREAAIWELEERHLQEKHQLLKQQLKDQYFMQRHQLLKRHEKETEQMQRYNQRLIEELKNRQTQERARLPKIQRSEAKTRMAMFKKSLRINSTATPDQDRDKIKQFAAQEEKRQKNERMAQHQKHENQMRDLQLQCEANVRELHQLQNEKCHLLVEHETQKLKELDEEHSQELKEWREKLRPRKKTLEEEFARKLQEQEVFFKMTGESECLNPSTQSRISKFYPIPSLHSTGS
Also: in the data inactive means no Kd found up to 30 µM.

Atypical kinase COQ8A, mitochondrial, sequence (Q8NI60 whole entry): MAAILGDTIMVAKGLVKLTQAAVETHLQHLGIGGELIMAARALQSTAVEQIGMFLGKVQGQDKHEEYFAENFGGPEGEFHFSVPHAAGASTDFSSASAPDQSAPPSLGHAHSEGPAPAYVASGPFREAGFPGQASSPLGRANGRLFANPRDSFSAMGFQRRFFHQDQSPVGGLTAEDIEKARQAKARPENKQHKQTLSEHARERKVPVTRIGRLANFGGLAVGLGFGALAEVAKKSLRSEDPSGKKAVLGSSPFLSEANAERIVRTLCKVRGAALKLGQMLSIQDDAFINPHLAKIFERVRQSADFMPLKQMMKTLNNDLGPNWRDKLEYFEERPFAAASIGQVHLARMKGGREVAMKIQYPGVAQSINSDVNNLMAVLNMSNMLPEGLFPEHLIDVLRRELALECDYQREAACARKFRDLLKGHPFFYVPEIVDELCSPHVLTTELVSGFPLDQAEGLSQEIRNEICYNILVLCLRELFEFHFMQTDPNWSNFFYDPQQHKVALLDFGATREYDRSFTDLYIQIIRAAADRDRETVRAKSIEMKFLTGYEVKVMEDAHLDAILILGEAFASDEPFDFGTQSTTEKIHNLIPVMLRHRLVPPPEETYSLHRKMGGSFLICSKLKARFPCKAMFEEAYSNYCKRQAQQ

SMILES	Kd [1]	Kd [2]	Kd [3]	Kd [4]	Kd [5]	Kd [6]	Kd [7]	Kd [8]	Kd [9]	Kd [10]	Kd [11]	Kd [12]
CNC(=O)c1ccc(-c2cnc3ncc(Cc4ccc5ncccc5c4)n3n2)cc1F [CAPMATINIB]	> 30 µM (inactive)	> 30 µM (inactive)	> 30 µM (inactive)	> 30 µM (inactive)	> 30 µM (inactive)	> 30 µM (inactive)	> 30 µM (inactive)	> 30 µM (inactive)	> 30 µM (inactive)	> 30 µM (inactive)	> 30 µM (inactive)	> 30 µM (inactive)
C[C@@H](c1ccc2nccn2c1)n1nnc2ncc(-c3cnn(C)c3)nc21 [SAVOLITINIB]	> 30 µM (inactive)	> 30 µM (inactive)	> 30 µM (inactive)	> 30 µM (inactive)	> 30 µM (inactive)	> 30 µM (inactive)	> 30 µM (inactive)	> 30 µM (inactive)	> 30 µM (inactive)	> 30 µM (inactive)	> 30 µM (inactive)	> 30 µM (inactive)
CC[C@@H]1C(=O)N(C)c2cnc(Nc3ccc(C(=O)N[C@H]4CC[C@H](N5CCN(CC6CC6)CC5)CC4)cc3OC)nc2N1C(C)C [VOLASERTIB]	> 30 µM (inactive)	> 30 µM (inactive)	> 30 µM (inactive)	> 30 µM (inactive)	> 30 µM (inactive)	> 30 µM (inactive)	> 30 µM (inactive)	> 30 µM (inactive)	> 30 µM (inactive)	> 30 µM (inactive)	> 30 µM (inactive)	> 30 µM (inactive)
CN1CCC(COc2cnc(-c3cccc(Cn4nc(-c5cccc(C#N)c5)ccc4=O)c3)nc2)CC1 [TEPOTINIB]	> 30 µM (inactive)	> 30 µM (inactive)	> 30 µM (inactive)	> 30 µM (inactive)	> 30 µM (inactive)	> 30 µM (inactive)	> 30 µM (inactive)	> 30 µM (inactive)	> 30 µM (inactive)	> 30 µM (inactive)	> 30 µM (inactive)	> 30 µM (inactive)
Cc1cc2c(F)c(Oc3ncnn4cc(OC[C@@H](C)OC(=O)[C@H](C)N)c(C)c34)ccc2[nH]1 [BRIVANIB ALANINATE]	> 30 µM (inactive)	> 30 µM (inactive)	> 30 µM (inactive)	> 30 µM (inactive)	> 30 µM (inactive)	> 30 µM (inactive)	46.2 µM (active)	> 30 µM (inactive)	> 30 µM (inactive)	> 30 µM (inactive)	> 30 µM (inactive)	9.49 µM (active)
CN1N=C(N)c2cn([C@@H]3O[C@H](COP(=O)(O)O)[C@@H](O)[C@H]3O)c3ncnc1c23 [TRICIRIBINE PHOSPHATE]	> 30 µM (inactive)	> 30 µM (inactive)	> 30 µM (inactive)	> 30 µM (inactive)	> 30 µM (inactive)	> 30 µM (inactive)	> 30 µM (inactive)	> 30 µM (inactive)	> 30 µM (inactive)	> 30 µM (inactive)	> 30 µM (inactive)	> 30 µM (inactive)
Cc1cc([C@@H](C)Nc2ccccc2C(=O)O)c2nc(N3CCOCC3)cc(=O)n2c1 [AZD-6482]	> 30 µM (inactive)	> 30 µM (inactive)	> 30 µM (inactive)	> 30 µM (inactive)	> 30 µM (inactive)	> 30 µM (inactive)	> 30 µM (inactive)	> 30 µM (inactive)	> 30 µM (inactive)	> 30 µM (inactive)	> 30 µM (inactive)	> 30 µM (inactive)
CCS(=O)(=O)N1CC(CC#N)(n2cc(-c3ncnc4[nH]ccc34)cn2)C1 [BARICITINIB]	> 30 µM (inactive)	> 30 µM (inactive)	> 30 µM (inactive)	> 30 µM (inactive)	> 30 µM (inactive)	> 30 µM (inactive)	> 30 µM (inactive)	> 30 µM (inactive)	> 30 µM (inactive)	> 30 µM (inactive)	> 30 µM (inactive)	> 30 µM (inactive)
Cc1cc(-c2cc(O)ccc2Cl)cc2nnc(Nc3ccc(OCCN4CCCC4)cc3)nc12	> 30 µM (inactive)	> 30 µM (inactive)	> 30 µM (inactive)	> 30 µM (inactive)	> 30 µM (inactive)	> 30 µM (inactive)	> 30 µM (inactive)	> 30 µM (inactive)	> 30 µM (inactive)	> 30 µM (inactive)	0.002 µM (active)	> 30 µM (inactive)
O=C(c1ccc(F)c(F)c1Nc1ccc(I)cc1F)N1CC(O)([C@@H]2CCCCN2)C1 [COBIMETINIB]	> 30 µM (inactive)	> 30 µM (inactive)	> 30 µM (inactive)	> 30 µM (inactive)	> 30 µM (inactive)	> 30 µM (inactive)	> 30 µM (inactive)	> 30 µM (inactive)	> 30 µM (inactive)	> 30 µM (inactive)	> 30 µM (inactive)	> 30 µM (inactive)
O=c1sn(-c2cccc3ccccc23)c(=O)n1Cc1ccccc1 [TIDEGLUSIB]	> 30 µM (inactive)	> 30 µM (inactive)	> 30 µM (inactive)	> 30 µM (inactive)	> 30 µM (inactive)	> 30 µM (inactive)	> 30 µM (inactive)	> 30 µM (inactive)	> 30 µM (inactive)	> 30 µM (inactive)	> 30 µM (inactive)	> 30 µM (inactive)
CNS(=O)(=O)Nc1nccc(Cc2c(C)c3ccc(Oc4ncccn4)cc3oc2=O)c1F [AVUTOMETINIB]	> 30 µM (inactive)	> 30 µM (inactive)	> 30 µM (inactive)	> 30 µM (inactive)	> 30 µM (inactive)	> 30 µM (inactive)	> 30 µM (inactive)	> 30 µM (inactive)	> 30 µM (inactive)	> 30 µM (inactive)	> 30 µM (inactive)	> 30 µM (inactive)
Cc1ccc(S(=O)(=O)Nc2nc3ccccc3nc2Nc2ccc3nsnc3c2)cc1	> 30 µM (inactive)	> 30 µM (inactive)	> 30 µM (inactive)	> 30 µM (inactive)	> 30 µM (inactive)	> 30 µM (inactive)	> 30 µM (inactive)	> 30 µM (inactive)	> 30 µM (inactive)	> 30 µM (inactive)	> 30 µM (inactive)	> 30 µM (inactive)
